Where two headings read alike, the source gives them in different places.
Columns and labels:
[1] = Stability on exposure to air at room temperature; format: physicochemical; conditions: slowly oxidized over time to compound 8
From the text: These experimental results signify that compound 7 and 1 are distinct compounds. Compound 7 was not stable when exposed to air at room temperature; instead, it slowly oxidized over time to compound 8 (Scheme 2). Additionally, some of the oxidized product 8 was always produced during the preparation of compound 7.

[2] = target: T1, RAD51 (Homo sapiens, UniProt Q06609); assay: Fluorescence polarization-based DNA binding assay (RAD51-ssDNA binding); format: biochemical; conditions: for ssDNA binding IC50 / IC50: Stim = stimulator; for Emax: read-out: ssDNA binding Max effect; for influence on RAD51-ssDNA binding, in words: summary of Tables 2 and 3
T1 sequence (Q06609 1-339): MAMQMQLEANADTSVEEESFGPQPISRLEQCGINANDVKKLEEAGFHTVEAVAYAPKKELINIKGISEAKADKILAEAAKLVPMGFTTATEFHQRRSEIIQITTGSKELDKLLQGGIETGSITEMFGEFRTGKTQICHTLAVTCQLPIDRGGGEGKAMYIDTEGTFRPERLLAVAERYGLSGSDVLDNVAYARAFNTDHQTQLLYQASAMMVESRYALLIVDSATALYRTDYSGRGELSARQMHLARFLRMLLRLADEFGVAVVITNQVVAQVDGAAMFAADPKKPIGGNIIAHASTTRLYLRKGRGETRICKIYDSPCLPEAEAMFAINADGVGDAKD
Experimental: The fluorescence polarization-based DNA binding assay and purification of human RAD51 used for this assay was performed as previously described with a few modifications.^23 Reactions were carried out in black 384-well polystyrene plates. In each well, RAD51 protein was combined with reaction buffer and varying concentrations of compound in DMSO in an initial volume of 40 μl and incubated at 37° C. for 40 minutes. Then, 10 μl of reaction buffer containing fluorescently-labeled ssDNA substrate (5′-Alexa488-oligo-dT45) was added and the reaction incubated at 37° C. for another 40 minutes, after which the plate was read on a Tecan Infinite 200 Pro plate reader equipped with two sets of 485±25 nm/535±35 nm with parallel or perpendicularly-oriented polarization filters. In both steps of the reaction setup, buffer components were maintained at 20 mM HEPES-NaOH (pH 7.5), 2 mM ATP, 10 mM MgCl2, 0.1 mM TCEP-HCl (tris(2-carboxyethyl)phosphine), and 0.25 μM BSA. The final reaction contained 4% DMSO, 0.2 μM RAD51, 30 mM NaCl, 2% glycerol, and 2.22 nM ssDNA substrate. Compound IC50 values were obtained by least-squares regression fitting of appropriate linear, log, or sigmoid dose-response models to the data, with the standard error indicated. […]

[3] = target: T1, RAD51; assay: Gel-based D-loop assay; format: biochemical; conditions: for IC50: read-out: D-Loops IC50; for D-loop inhibitory activity, in words: summary of Tables 2 and 3
Experimental: Human RAD51 in reaction buffer was combined with compound in […] DMSO, incubated at 37° C. for 10 min, and then 1 μl of 5′-^32P-labeled 90-mer ssDNA (5′-[…]) with homology to the plasmid pRS306 ^34 was added and the reaction was incubated at 37° C. for an additional 5 minutes. 1 μl of supercoiled pRS306 was then added to the reaction and incubated at 37° C. for 20 minutes; at this point the reaction consisted of 25 mM HEPES-NaOH (pH 7.0), 1 mM ATP, 1 mM MgCl2, 1 mM DTT, 1.5 μM BSA, 4.5% DMSO, 0.5 μM RAD51, 11 mM NaCl, 1% glycerol, 20 nM ssDNA, and 5 nM pRS306. The reactions were de-proteinized with 0.8% SDS and 0.8 mg/ml proteinase K, mixed with gel loading buffer, and run on a 0.9% agarose/1×TAE gel, which was dried and exposed to a phosphor screen overnight and imaged on a Storm 860 PhosphorImager. Compound IC50 values were obtained by least-squares regression fitting of appropriate linear, log, or sigmoid dose-response models to the data, with the standard error indicated.
To improve upon the D-loop inhibitory activity, medicinal chemical studies were undertaken to optimize 8. First, different functional groups were appended to rings A and B as substituents, including alkyl groups of different sizes, electron withdrawing/donating groups, and hydrogen bond donor/acceptor groups. Next, replacement of the phenyl ring B with different heterocycles or other saturated/unsaturated rings was investigated in order to probe its role. For each of the prepared compounds, the gel-based D-loop assay and the microplate-based DNA binding assay were used to characterize the biochemical activities.

[4] = tested on: 293-DR-GFP cells; assay: DR-GFP assay, quantitation of HR efficiency in cells; format: cell-based, human; conditions: 24-hour incubation, FIG. 5a
Experimental: 293-DR-GFP cells were electroporated in Opti-MEM with 37.5 μg/ml pCBASce in 0.4 cm cuvettes at 325 V, 975 μF and seeded into 6-well plates with 2.5 ml complete DMEM+0.5% DMSO with compound and allowed to outgrow for 24 hours. Following outgrowth, cells were harvested and suspended in PBS with 1 μg/ml 7-aminoactinomycin D (7-AAD) and analyzed on a BD FACSCalibur flow cytometer. Dead and apoptotic cells were gated out based on size, shape, and 7-AAD staining and the fraction of GFP-positive cells among the population of live cells was determined.
The DR-GFP assay was used to test the ability of representative compounds to inhibit HR in human cells.^27 Briefly, cells containing the chromosomal DR-GFP reporter were transfected with a plasmid that expresses I-SceI, a rare-cutting endonuclease that makes a DSB within the DR-GFP cassette. Compounds were added at the time of transfection and the cells were outgrown for 24 hours. For longer outgrowth periods such as 48 hours, cells regained some HR activity. To overcome this technical limitation, the relatively early time point of 24 hours was selected to describe the in vivo effects of these compounds.

[5] = Table 3, cells marked ↑: compound stimulates RAD51-ssDNA binding
[6] = Table 3, cells marked ↓: compound inhibits RAD51-ssDNA binding
[7] = Table 2, cells marked ↓: compound inhibits RAD51-ssDNA binding
[8] = Table 2, cells marked ↑: compound stimulates RAD51-ssDNA binding

Which results are given for `COc1ccc2c(c1)NC(c1ccc(N(C)C)cc1)c1cccn1-2` (stereo not shown) [Compound 7, 4-(7-Methoxy-4,5-dihydropyrrolo[1,2-a][13]quinoxalin-4-yl)-N,N-dimethylaniline]?
stability when exposed to air at room temperature [1]: not stable; ssDNA binding IC50 ([2]; Table 1): Stim; Emax ([2]; Table 1, cells marked ↑: compound stimulates RAD51-ssDNA binding): 47%; D-Loops Max inhibition effect ([3]; Table 1): 17%; inhibitory activity in the cell-based HR (DR-GFP) assay relative to 1 and 8, in words [4]: comparable

For `CN(C)c1ccc(-c2nc3cc(O)ccc3n3cccc23)cc1` [Compound 12g, 4-(4-(Dimethylamino)phenyl)pyrrolo[1,2-a]quinoxalin-7-ol], which “ssDNA binding IC50” value ([2]; Table 3) is on record?
The value was “Stim”.

What about the Emax [2, 5] of the same compound?
The Emax was 34 ± 32%.

And the “influence on RAD51-ssDNA binding, in words” value (“influence” below) [2]?
Its value is “only weakly influenced”.

And the “D-Loops Max inhibition effect” value ([3]; Table 3)?
Its value is 91 ± 8%.

What about the IC50 ([3]; Table 3) of the same compound?
The IC50 was 9.8 µM.

What about the “inhibitory activity in the cell-based HR (DR-GFP) assay relative to 1 and 8, in words” value [4] of the same compound?
Its value is “comparable or slightly less inhibitory activity”.

What does the source list for `Oc1ccc2c(c1)nc(-c1cccnc1)c1cccn12` [Compound 13b, 4-(Pyridin-3-yl)pyrrolo[1,2-a]quinoxalin-7-ol]?
Emax [2, 6]: 87 ± 10%; D-Loops Max inhibition effect ([3]; Table 3): 53 ± 30%

With `Nc1ccc(-c2nc3cc(O)ccc3n3cccc23)cc1` [Compound 12f, 4-(4-Aminophenyl)pyrrolo[1,2-a]quinoxalin-7-ol] as the compound, how does the IC50 ([2]; Table 3) read?
The IC50 was 96.9 ± 44.9 µM.

What about the Emax [2, 6] of the same compound?
Its Emax is 82 ± 23%.

What about the “influence” value [2] of the same compound?
The value was “modest effects”.

And the IC50 ([3]; Table 3)?
Its IC50 is 8.4 ± 3.4 µM.

And the “inhibitory activity in the cell-based HR (DR-GFP) assay relative to 1 and 8, in words” value [4]?
The value was “comparable or slightly less inhibitory activity”.

For `Nc1ccc(-c2nc3cc(F)c(F)cc3n3cccc23)cc1` [Compound 12l, 4-(7,8-Difluoropyrrolo[1,2-a]quinoxalin-4-yl)aniline], which IC50 ([2]; Table 3) is on record?
Its IC50 is > 100 µM.

What about the Emax [2, 6] of the same compound?
The Emax was 42 ± 8%.

And the IC50 ([3]; Table 3)?
The IC50 was 34 ± 2.9 µM.

For `Oc1ccc(-c2nc3cc(O)ccc3n3cccc23)cc1` [Compound 12d, 4-(4-Hydroxyphenyl)pyrrolo[1,2-a]quinoxalin-7-ol], which IC50 ([2]; Table 3) is on record?
The IC50 was > 100 µM.

And the Emax [2, 6]?
Its Emax is 72 ± 11%.

What about the IC50 ([3]; Table 3) of the same compound?
The IC50 was 27.6 ± 4.9 µM.

With `COc1ccc2c(c1)nc(-c1cccnc1)c1cccn12` [Compound 13a, 7-Methoxy-4-(pyridin-3-yl)pyrrolo[1,2-a]quinoxaline] as the compound, how does the Emax [2, 6] read?
The Emax was 16 ± 28%.

What about the “D-Loops Max inhibition effect” value ([3]; Table 3) of the same compound?
The value was 74 ± 5%.

And the IC50 ([3]; Table 3)?
Its IC50 is 38.6 ± 6.2 µM.

What does the source list for `CN(C)c1ccc(-c2nc3cc(OC(C)(C)C(N)=O)ccc3n3cccc23)cc1` [Compound 16, 2-((4-(4-(Dimethylamino)phenyl)pyrrolo[1,2-a]quinoxalin-7-yl)oxy)-2-methylpropanamide]?
ssDNA binding IC50 ([2]; Table 3): Stim; Emax [2, 5]: 131 ± 28%; influence on RAD51-ssDNA binding, in words [2]: stimulators; IC50 ([3]; Table 3): > 100 µM

For `CCCOc1ccc2c(c1)nc(-c1ccc(N)cc1)c1cccn12` [Compound 15a, 4-(7-Propoxypyrrolo[1,2-a]quinoxalin-4-yl)aniline], which “ssDNA binding IC50” value ([2]; Table 3) is on record?
The value was “Stim”.

What about the Emax [2, 5] of the same compound?
Its Emax is 117 ± 18%.

What about the “influence” value [2] of the same compound?
Its value is “stimulators”.

And the IC50 ([3]; Table 3)?
Its IC50 is 46.1 ± 2.8 µM.

Which IC50 ([2]; Table 2) does the source give for `Nc1ccc(-c2nc3ccccc3n3cccc23)cc1` [Compound 9g, 4-(Pyrrolo[1,2-a]quinoxalin-4-yl)aniline] here?
Its IC50 is > 100 µM.

And the Emax [2, 7]?
The Emax was 18 ± 11%.

What about the IC50 ([3]; Table 2) of the same compound?
Its IC50 is 22.1 µM.

With `CN(C)c1ccc(-c2nc3cc(F)c(F)cc3n3cccc23)cc1` [Compound 12m, 4-(7,8-Difluoropyrrolo[1,2-a]quinoxalin-4-yl)-N,N-dimethylaniline] as the compound, how does the “ssDNA binding IC50” value ([2]; Table 3) read?
Its value is “Stim”.

And the Emax [2, 5]?
Its Emax is 65 ± 22%.

What about the “D-loop inhibitory activity, in words” value [3] of the same compound?
The value was “nearly absent”.

For `Nc1ccc(-c2nc3cc(F)ccc3n3cccc23)cc1` [Compound 12i, 4-(7-Fluoropyrrolo[1,2-a]quinoxalin-4-yl)aniline], which IC50 ([2]; Table 3) is on record?
Its IC50 is 81.5 ± 16.6 µM.

What about the Emax [2, 6] of the same compound?
Its Emax is 60 ± 18%.

And the IC50 ([3]; Table 3)?
Its IC50 is 25 ± 5.1 µM.

Which “ssDNA binding IC50” value ([2]; Table 2) does the source give for `c1ccc2c(-c3nc4ccccc4n4cccc34)cccc2c1` [Compound 11d, 4-(Naphthalen-1-yl)pyrrolo[1,2-a]quinoxaline] here?
Its value is “Stim”.

And the Emax [2, 8]?
Its Emax is 56 ± 31%.

What about the “influence” value [2] of the same compound?
The value was “modest influence”.

And the “D-loop inhibitory activity, in words” value [3]?
The value was “weak”.

Which Emax [2, 7] does the source give for `c1ccc2c(c1)nc(-c1ccncc1)c1cccn12` [Compound 11b, 4-(Pyridin-4-yl)pyrrolo[1,2-a]quinoxaline] here?
The Emax was 7 ± 38%.

What about the IC50 ([3]; Table 2) of the same compound?
Its IC50 is 79.4 ± 6 µM.

What about the “D-loop inhibitory activity, in words” value [3] of the same compound?
Its value is “moderate”.

What does the source list for `CN(C)c1ccc(-c2nc3ccccc3n3cccc23)cc1` [Compound 9a, N,N-dimethyl-4-(pyrrolo[1,2-a]quinoxalin-4-yl)aniline]?
ssDNA binding IC50 ([2]; Table 2): Stim; Emax [2, 8]: 88 ± 22%; influence on RAD51-ssDNA binding, in words [2]: modest influence; IC50 ([3]; Table 2): 27.6 ± 6 µM

Source: patent publication US10973819B2, “Small molecules inhibitors of RAD51” (The University of Chicago, priority 2016, dated 2021)
